Data reported in patent publication US8399495B2, “Talarazole metabolites” (Stiefel Laboratories, Inc., priority 2006, dated 2013).

What was measured:
[1] = Pharmacokinetics of radioactivity in plasma after oral 14C-labeled talarozole, human; format: in vivo; conditions: male, single oral 4 mg
Description: (§1) Mouse, rat, dog and human were the species used for the safety evaluations of talarozole. More specifically, the disposition of ^14C-labeled talarozole was examined in mice, rats, dogs and humans after oral administration to provide information regarding the absorption, metabolism and excretion of talarozole.
Male and female CD-1 mice (19-29 g, n=3/sex/timepoint for blood sampling, n=3/sex for mass balance), Sprague Dawley rats (0.205-0.237 kg, n=3/sex/timepoint for blood sampling, n=3/sex for mass balance) and beagle dogs (7-12 kg, n=3) were given a single oral dose of ^14C-labeled talarozole in 20% hydroxyl propyl B-cyclodextrin at 5 mg/kg. […] Radioactivity in various matrices were measured by liquid scintillation counting (LSC). […] Radioactivity peaks were integrated and the percent distribution of individual metabolites in each sample was determined. […] For all species, plasma, urine and fecal samples were pooled across animals and analyzed. Plasma was analyzed at several time-points out to 24 hours. […] PK parameter values were determined by non-compartmental methods using WinNonlin™. • HPLC data for separations described in Example 1: • LC system: Waters 2695 Separations Module • Analytic column: C18 column, 4.6×150 mm, 3 μm • Flow rate: 1.0 mL/min • Mobile phase A: 2% HCOOH in H2O (pH 3.2) • Mobile phase B: CH3CN • Gradient: […]

[2] = Pharmacokinetics of radioactivity in plasma after oral 14C-labeled talarozole, rat; format: in vivo; conditions: single oral 5 mg/kg; for AUC0-t: 0-48 h
Description: as §1
Male and female CD-1 mice (19-29 g, n=3/sex/timepoint for blood sampling, n=3/sex for mass balance), Sprague Dawley rats (0.205-0.237 kg, n=3/sex/timepoint for blood sampling, n=3/sex for mass balance) and beagle dogs (7-12 kg, n=3) were given a single oral dose of ^14C-labeled talarozole in 20% hydroxyl propyl B-cyclodextrin at 5 mg/kg. Healthy human male volunteers (76.6-107.9 kg, n=5) were dosed with a single oral dose of 4 mg ^14C-labeled rambazole in ethanol. Blood samples were collected at selected timepoints after dosing and plasma was prepared. Urine and feces were collected for 2, 7 and 8 days. For the human study, up to 288 hours post-dose and semen samples were obtained 2 and 4 hours post-dose. Radioactivity in various matrices were measured by liquid scintillation counting (LSC). Select plasma, urine and fecal samples were subjected to metabolite radioprofiling and characterization, and in the human study, semen samples. Metabolite radioprofiling was accomplished using HPLC with fraction collection followed by solid scintillation counting (Packard TopCount—see representative HPLC run data below). Radioactivity peaks were integrated and the percent distribution of individual metabolites in each sample was determined. […] For all species, plasma, urine and fecal samples were pooled across animals and analyzed. Plasma was analyzed at several time-points out to 24 hours. Urine was analyzed over one time-interval (0-24 hours for mouse, 0-48 hours for rat, 0-72 hours for dog, and for in the human study, 0-12, 12-24, 24-48, 0-48 hours. Feces was analyzed over 2-3 time intervals (0-24 and 24-48 hours for mouse and rat; 0-24, 24-48, and 48-72 hours for male dogs; and 24-48, 48-72, and 72-96 hours for female dogs). In the human study, feces were analyzed for 0-48, 48-96, 96-144, 144-192, 192-288, 0-144, 144-288 and 0-288 hours. PK parameters for ^14C-labeled talarozole radioactivity was determined from the mean (mouse and rat) or individual (dog and human) plasma concentration versus time data. PK parameter values were determined by non-compartmental methods using WinNonlin™. • HPLC data for separations described in Example 1: • LC system: Waters 2695 Separations Module • Analytic column: C18 column, 4.6×150 mm, 3 μm • Flow rate: 1.0 mL/min • Mobile phase A: 2% HCOOH in H2O (pH 3.2) • Mobile phase B: CH3CN • Gradient: […]

[3] = Excretion of radioactivity (mass balance), human; format: in vivo; conditions: male, 0-288, oral 4 mg
Description: as §1
Male and female CD-1 mice (19-29 g, n=3/sex/timepoint for blood sampling, n=3/sex for mass balance), Sprague Dawley rats (0.205-0.237 kg, n=3/sex/timepoint for blood sampling, n=3/sex for mass balance) and beagle dogs (7-12 kg, n=3) were given a single oral dose of ^14C-labeled talarozole in 20% hydroxyl propyl B-cyclodextrin at 5 mg/kg. Healthy human male volunteers (76.6-107.9 kg, n=5) were dosed with a single oral dose of 4 mg ^14C-labeled rambazole in ethanol. Blood samples were collected at selected timepoints after dosing and plasma was prepared. Urine and feces were collected for 2, 7 and 8 days. For the human study, up to 288 hours post-dose and semen samples were obtained 2 and 4 hours post-dose. Radioactivity in various matrices were measured by liquid scintillation counting (LSC). Select plasma, urine and fecal samples were subjected to metabolite radioprofiling and characterization, and in the human study, semen samples. Metabolite radioprofiling was accomplished using HPLC with fraction collection followed by solid scintillation counting (Packard TopCount—see representative HPLC run data below). Radioactivity peaks were integrated and the percent distribution of individual metabolites in each sample was determined. Metabolite characterization and identification were accomplished by LC/MS (Finnigan MAT LCQ in positive or negative ESI mode) in conjunction with an appropriate radioactive monitor (RAM). For all species, plasma, urine and fecal samples were pooled across animals and analyzed. Plasma was analyzed at several time-points out to 24 hours. Urine was analyzed over one time-interval (0-24 hours for mouse, 0-48 hours for rat, 0-72 hours for dog, and for in the human study, 0-12, 12-24, 24-48, 0-48 hours. Feces was analyzed over 2-3 time intervals (0-24 and 24-48 hours for mouse and rat; 0-24, 24-48, and 48-72 hours for male dogs; and 24-48, 48-72, and 72-96 hours for female dogs). In the human study, feces were analyzed for 0-48, 48-96, 96-144, 144-192, 192-288, 0-144, 144-288 and 0-288 hours. PK parameters for ^14C-labeled talarozole radioactivity was determined from the mean (mouse and rat) or individual (dog and human) plasma concentration versus time data. PK parameter values were determined by non-compartmental methods using WinNonlin™. • HPLC data for separations described in Example 1: • LC system: Waters 2695 Separations Module • Analytic column: C18 column, 4.6×150 mm, 3 μm • Flow rate: 1.0 mL/min • Mobile phase A: 2% HCOOH in H2O (pH 3.2) • Mobile phase B: CH3CN • Gradient: […]

[4] = system: IP-10; experiment: Suppression of IP-10 production by IFNγ-activated human epidermal keratinocytes; format: cell-based
Description: Talarozole Metabolites for Suppression of IP-10 Production by IFNγ-Activated Human Epidermal Keratinocytes
IP-10, a member of the CXC subfamily of chemokines, attracts T-lymphocytes and natural killer cells. […] In particular, epidermal keratinocytes of psoriatic lesions express elevated levels of IP-10. Suppression of IP-10 expression by activated keratinocytes may represent a novel target for therapeutic intervention of inflammatory skin disorders.

[5] = listed as 14C-labeled talarozole

With `CCC(CC)[C@H](c1ccc(Nc2nc3ccccc3s2)cc1)n1cncn1` [Talarozole, (R)—N-[4-[2-ethyl-1-(1H-1,2,4-triazole-1-yl)butyl]phenyl]-2-benzothiazolamine] the “AUC0-∞” value [1] was 301 hr-ng equiv/g, the AUC0-t ([1]; 0-48 h) was 269 hr-ng equiv/g and the “AUC0-∞” value ([2]; female) was 7810 hr-ng equiv/g. For the same compound, the AUC0-t ([2]; female) was 7670 hr-ng equiv/g, the “AUC0-∞” value ([2]; male) was 6960 hr-ng equiv/g and the AUC0-t ([2]; male) was 6720 hr-ng equiv/g. The “Total % Recovered” value [3] was 87.7%, the “% in Feces (percent of dose recovered, total radioactivity)” value ([3]; listed as 14C-Talarozole) was 80.36% and the “% in Urine (percent of dose recovered, total radioactivity)” value ([3]; listed as 14C-Talarozole) was 7.29%. For the same compound, the “% in Feces (percent of dose recovered, total radioactivity)” value [3, 5] was 72.2%, the “% in Urine (percent of dose recovered, total radioactivity)” value [3, 5] was 7.3% and the “IP-10 expression” value [4] was “down regulate dose-dependently”.
